Test results as given in patent USRE38520E1, “Erythromycin derivatives, method for preparing same, and use thereof as drugs” (Aventis Pharma S.A., priority 1996, dated 2004).

Assays:
Test in all cases: Method of dilutions in liquid medium (M.I.C.)
Assay type in all cases: cell-based
Settings in all cases: incubation twenty-four hours at 37° C.
[1] = tested on: Streptoccocus aritis 02mmCH1
Method: (§1) Method of Dilutions in Liquid Medium A series of tubes were prepared into which the same quantity of sterile nutritive medium is distributed. Increasing quantities of the product to be studied are distributed into each tube, then each tube is seeded with a bacterial strain. After incubation for twenty-four hours in a heating chamber at 37° C., the growth inhibition is evaluated by transillumination, which permits the minimal inhibitory concentrations (M.I.C.) to be determined, expressed in micrograms/cm^3.

[2] = tested on: Streptoccocus faecium group D 02D2UCI
Method: as §1

[3] = tested on: Streptoccocus agalactae group B 02B1811
Method: as §1

[4] = tested on: Streptoccocus aritis 02mmGR01
Method: as §1

[5] = tested on: Streptoccocus pyogenes group A 02A1UCI
Method: as §1

[6] = tested on: Streptoccocus sp. group G 02GRGR5
Method: as §1

[7] = tested on: Staphylococtus aureus 011UC4
Method: as §1

[8] = tested on: Streptoccocus pneumoniae 031515
Method: as §1

[9] = tested on: Streptoccocus agalactae group B 02B1UTI
Method: as §1

[10] = tested on: Streptoccocus faecalis group C 02D2UCI
Method: as §1

Row | Compound | minimal inhibitory concentrations (M.I.C.) [1] [micrograms/cm^3] | minimal inhibitory concentrations (M.I.C.) [2] [micrograms/cm^3] | minimal inhibitory concentrations (M.I.C.) [3] [micrograms/cm^3] | minimal inhibitory concentrations (M.I.C.) [4] [micrograms/cm^3] | minimal inhibitory concentrations (M.I.C.) [5] [micrograms/cm^3] | minimal inhibitory concentrations (M.I.C.) [6] [micrograms/cm^3] | minimal inhibitory concentrations (M.I.C.) [7] [micrograms/cm^3] | minimal inhibitory concentrations (M.I.C.) [8] [micrograms/cm^3] | minimal inhibitory concentrations (M.I.C.) [9] | minimal inhibitory concentrations (M.I.C.) [10] [micrograms/cm^3]
1 | 11,12-dideoxy-3-de((2,6-dideoxy-3-C-methyl-3-O-methyl-alpha-L-ribohexopyranosyl)oxy)-3-hydroxy-6-O-methyl-12,11-(oxycarbonyl(2-(3-(4-quinolinyl)propyl)hydrazono)) erythromycin [Ex. 1] | 0.3 | 0.04 | 0.6 | 0.15 | 0.04 | 0.04 | 0.3 | 0.6 | ≦0.02 micrograms/cm^3 | 0.04
2 | CC[C@H]1OC(=O)[C@H](C)[C@@H](O)[C@H](C)[C@@H](O[C@@H]2O[C@H](C)C[C@H](N(C)C)[C@H]2O)[C@](C)(OC)C[C@@H](C)C(=O)[C@H](C)[C@H]2N(CCCCn3cnc(-c4cccnc4)c3)C(=O)O[C@]12C [Ex. 2, 11,12-dideoxy-3-d((2,6-dideoxy-3-C-methyl-3-O-methyl-alpha-L-ribohexopyranosyl)oxy)-3-hydroxy-6-O-methyl-12,11-(oxycarbonyl((4-(4-(3-pyridinyl)-1H-imidazol-1-yl)-butyl)imino))-erythromycin] | 0.34 | 0.3 | 1.2 | 0.6 | 0.15 | 0.15 | – | 1 | 0.04 micrograms/cm^3 | 0.3
